Data as given in patent US11384078B2, “5,6-fused-bicyclic compounds and compositions for the treatment of parasitic diseases” (NOVARTIS AG, priority 2017, dated 2022).
pEC50: −log10 of the molar value. Like-named read-outs stand apart in the source and are kept apart here.

How the values were obtained:
Type in all cases: cell-based
[1] = tested on: Trypanosoma cruzi amastigotes cultured in 3T3 fibroblast cells; assay: Assay for growth inhibition of kinetoplastid parasite Trypanosoma cruzi (beta-galactosidase Tulahuen strain, CPRG readout); settings: Trypanosoma cruzi, Fibroblast, T. cruzi amastigotes in 3T3 fibroblast cells; read-out: Buckner infectious T. cruzi EC50
Summary of the method: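 3T3 fibroblasts (1,000 cells/well) plated overnight, treated with compound in DMSO, then infected with 10,000 Lac-Z-expressing Tulahuen trypomastigotes. After 6 days, 0.6 mM CPRG with 0.6% NP-40 added for 2 h at room temperature; absorbance gives relative intracellular amastigote numbers. Benznidazole and nifurtimox serve as positive controls.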

[2] = tested on: Leishmania donovani axenic amastigote; assay: In vitro assay for growth inhibition of Leishmania donovani axenic amastigote (Cell TiterGlo luminescence); settings: Leishmania donovani, L. donovani axenic amastigotes in vitro; read-out: L. donovani amastigotes EC50
Summary of the method: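 Compound-treated wells received 9600 axenic amastigotes in RPMI 1640-based medium at pH 5.5 (37 °C, 5% CO2). Growth measured as ATP luminescence (CellTiter-Glo) after 2-day incubation; DMSO and reference compounds served as controls.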

[3] = tested on: L. donovani HU3 strain in mouse peritoneal macrophages; assay: Assay for inhibition of parasitemia of Leishmania donovani in mouse macrophages (SYBR Green nuclei count, high-content imaging); settings: Leishmania donovani, Peritoneal macrophage, L. donovani in mouse peritoneal macrophages; read-out: L. donovani in Mouse Macrophages EC50
Summary of the method: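 Parasite numbers were counted from SYBR Green-stained nuclei imaged by high-content microscopy after paraformaldehyde fixation and Triton permeabilization. Before this, compound was applied for 5 days at 37° C to BALB/c peritoneal macrophages (2×10^4/well) that had been exposed 24 h to 4×10^5 L. donovani HU3 amastigotes harvested from infected mouse spleens.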

[4] = tested on: Trypanosoma brucei brucei (Lister 427) strain; assay: Assay for growth inhibition against Trypanosoma brucei brucei (Cell TiterGlo ATP luminescence); settings: T. brucei brucei (Lister 427), read-out: T. Brucei (HAT) EC50
Summary of the method: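 Growth read-out is cellular ATP by CellTiter-Glo luminescence, measured 30 min after reagent addition, following 2-day incubation at 37 °C in CO2. Parasites (10,000/mL, HMI-9 plus 10% FBS and 10% serum plus) faced 10 threefold dilutions in duplicate; IC50 taken as 50% growth inhibition versus untreated.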

Structure (SMILES)	pEC50 [1]	pEC50 [2]	pEC50 [3]	pEC50 ([4]; Trypanosoma brucei)	pEC50 [4]
CC(C)c1cnc2nn(-c3cc(NC(=O)C4CC4(F)F)ccc3F)cc2c1 (centres unmarked) [Compound 208, 2,2-difluoro-N-{4-fluoro-3-[5-(propan-2-yl)-2H-pyrazolo[3,4-b]pyridin-2-yl]phenyl}cyclopropane-1-carboxamide]	6.45	6.04	5.72	6.43	–
CC(C)c1cnc2nn(-c3cc(NC(=O)C4(C(F)(F)F)CC4)ccc3F)cc2c1 [Compound 209, N-{4-fluoro-3-[5-(propan-2-yl)-2H-pyrazolo[3,4-b]pyridin-2-yl]phenyl}-1-(trifluoromethyl)cyclopropane-1-carboxamide]	5.29	4.60	6.42	5.18	–
CC(C)c1cnc2nn(-c3cc(NC(=O)C4CC4C)ccc3F)cc2c1 (centres unmarked) [Compound 211, N-{4-fluoro-3-[5-(propan-2-yl)-2H-pyrazolo[3,4-b]pyridin-2-yl]phenyl}-2-methylcyclopropane-1-carboxamide]	7.14	6.30	6.52	7.46	–
CC(C)c1cnc2nn(-c3cc(NC(=O)CC(F)(F)F)ccc3F)cc2c1 [Compound 212, 3,3,3-trifluoro-N-{4-fluoro-3-[5-(propan-2-yl)-2H-pyrazolo[3,4-b]pyridin-2-yl]phenyl}propanamide]	5.76	4.95	5.05	5.69	–
CC(C)c1cnc2nn(-c3cc(NC(=O)CCCC(F)(F)F)ccc3F)cc2c1 [Compound 214, 5,5,5-trifluoro-N-{4-fluoro-3-[5-(propan-2-yl)-2H-pyrazolo[3,4-b]pyridin-2-yl]phenyl}pentanamide]	5.85	5.34	6.18	5.98	–
CC(C)c1cnc2nn(-c3cc(NC(=O)CCC4CC4)ccc3F)cc2c1 [Compound 215, 3-cyclopropyl-N-{4-fluoro-3-[5-(propan-2-yl)-2H-pyrazolo[3,4-b]pyridin-2-yl]phenyl}propanamide]	6.13	5.33	5.53	6.02	–
CC(C)c1cnc2nn(-c3cc(NC(=O)CC4CCC4)ccc3F)cc2c1 [Compound 216, 2-cyclobutyl-N-{4-fluoro-3-[5-(propan-2-yl)-2H-pyrazolo[3,4-b]pyridin-2-yl]phenyl}acetamide]	6.36	5.43	5.33	6.21	–
O=C(Nc1ccc(F)c(-n2cc3cc(-c4ccccn4)cnc3n2)c1)C1=CCC1 [Compound 218, N-{4-fluoro-3-[5-(pyridin-2-yl)-2H-pyrazolo[3,4-b]pyridin-2-yl]phenyl}cyclobut-1-ene-1-carboxamide]	7.42	8.40	6.67	8.52	–
C[C@@H]1CN(c2cnc3nn(-c4cc(NC(=O)N5CC(F)C5)ccc4F)cc3c2)C[C@H](C)O1 [Compound 230, N-(3-{5-[(2R,6S)-2,6-dimethylmorpholin-4-yl]-2H-pyrazolo[3,4-b]pyridin-2-yl]-4-fluorophenyl)-3-fluoroazetidine-1-carboxamide]	7.33	7.43	7.66	–	8.30
O=C(Nc1ccc(F)c(-n2cc3cc(N4CCC45COC5)cnc3n2)c1)N1CC(F)C1 [Compound 231, 3-fluoro-N-{4-fluoro-3-(5-{6-oxa-1-azaspiro[3.3]heptan-1-yl}-2H-pyrazolo[3,4-b]pyridin-2-yl)phenyl}azetidine-1-carboxamide]	6.90	7.47	6.95	–	8.22
COCC1CN(c2cnc3nn(-c4cc(NC(=O)N5CC(F)C5)ccc4F)cc3c2)C1 [Compound 232, 3-fluoro-N-(4-fluoro-3-{5-[3-(methoxymethyl)azetidin-1-yl]-2H-pyrazolo[3,4-b]pyridin-2-yl]phenyl)azetidine-1-carboxamide]	7.92	7.92	8.00	–	8.30
O=C(Nc1ccc(F)c(-n2cc3cc(N4CC5(CC5)C4)cnc3n2)c1)N1CC(F)C1 [Compound 233, N-[3-(5-{5-azaspiro[2.3]hexan-5-yl}-2H-pyrazolo[3,4-b]pyridin-2-yl)-4-fluorophenyl]-3-fluoroazetidine-1-carboxamide]	8.30	7.89	8.00	–	8.40
O=C(Nc1ccc(F)c(-n2cc3cc(N4C[C@@H](F)[C@H](F)C4)cnc3n2)c1)N1CC(F)C1 [Compound 234, N-(3-{5-[(3R,4R)-3,4-difluoropyrrolidin-1-yl]-2H-pyrazolo[3,4-b]pyridin-2-yl]-4-fluorophenyl)-3-fluoroazetidine-1-carboxamide]	8.05	7.57	8.52	–	8.30
O=C(Nc1ccc(F)c(-n2cc3cc(N4C5CCC4COC5)cnc3n2)c1)N1CC(F)C1 [Compound 235, 3-fluoro-N-[4-fluoro-3-(5-{3-oxa-8-azabicyclo[3.2.1]octan-8-yl}-2H-pyrazolo[3,4-b]pyridin-2-yl)phenyl}azetidine-1-carboxamide]	7.96	7.96	8.00	8.30	–
O=C(O)C1CCN(c2cnc3nn(-c4cc(NC(=O)N5CC(F)C5)ccc4F)cc3c2)CC1 [Compound 236, 1-(2-{2-fluoro-5-[(3-fluoroazetidine-1-carbonyl)amino]phenyl}-2H-pyrazolo[3,4-b]pyridin-5-yl)piperidine-4-carboxylic acid]	4.70	6.58	4.53	5.83	–
O=C(Nc1ccc(F)c(-n2cc3cc(N4CCN(CC(F)(F)F)CC4)cnc3n2)c1)N1CC(F)C1 [Compound 237, 3-fluoro-N-(4-fluoro-3-{5-[4-(2,2,2-trifluoroethyl)piperazin-1-yl]-2H-pyrazolo[3,4-b]pyridin-2-yl}phenyl)azetidine-1-carboxamide]	7.68	7.80	8.05	8.30	–
O=C(Nc1ccc(F)c(-n2cc3cc(N4CCC(C5COC5)CC4)cnc3n2)c1)N1CC(F)C1 [Compound 238, 3-fluoro-N-(4-fluoro-3-{5-[4-(oxetan-3-yl)piperidin-1-yl]-2H-pyrazolo[3,4-b]pyridin-2-yl}phenyl)azetidine-1-carboxamide]	7.48	7.60	7.49	8.30	–
O=C(Nc1ccc(F)c(-n2cc3cc(N4CC5(CSC5)C4)cnc3n2)c1)N1CC(F)C1 [Compound 239, 3-fluoro-N-[4-fluoro-3-(5-{2-thia-6-azaspiro[3.3]heptan-6-yl}-2H-pyrazolo[3,4-b]pyridin-2-yl)phenyl}azetidine-1-carboxamide]	8.00	5.75	8.05	8.30	–
O=C(Nc1ccc(F)c(-n2cc3cc(N4CC5CC(C4)O5)cnc3n2)c1)N1CC(F)C1 [Compound 240, 3-fluoro-N-[4-fluoro-3-(5-{6-oxa-3-azabicyclo[3.1.1]heptan-3-yl}-2H-pyrazolo[3,4-b]pyridin-2-yl)phenyl}azetidine-1-carboxamide]	7.68	6.24	7.57	8.30	–
O=C(Nc1ccc(F)c(-n2cc3cc(N4CCC5(CC5)C4)cnc3n2)c1)N1CC(F)C1 [Compound 241, N-[3-(5-{5-azaspiro[2.4]heptan-5-yl}-2H-pyrazolo[3,4-b]pyridin-2-yl)-4-fluorophenyl}-3-fluoroazetidine-1-carboxamide]	8.52	5.92	8.22	8.30	–
O=C(Nc1ccc(F)c(-n2cc3cc(N4CCC5(CC5)C4)cnc3n2)c1)N1CCC2(CC2)C1 [Compound 242, N-[3-(5-{5-azaspiro[2.4]heptan-5-yl}-2H-pyrazolo[3,4-b]pyridin-2-yl)-4-fluorophenyl}-5-azaspiro[2.4]heptane-5-carboxamide]	8.15	5.71	6.97	7.89	–
O=C(Nc1ccc(F)c(-n2cc3cc(N4CC5(CCC5)C4)cnc3n2)c1)N1CC(F)C1 [Compound 243, N-[3-(5-{2-azaspiro[3.3]heptan-2-yl}-2H-pyrazolo[3,4-b]pyridin-2-yl)-4-fluorophenyl}-3-fluoroazetidine-1-carboxamide]	7.09	5.68	7.19	8.30	–
O=C(Nc1ccc(F)c(-n2cc3cc(N4CCC5(CCOCC5)C4)cnc3n2)c1)N1CC(F)C1 [Compound 244, 3-fluoro-N-[4-fluoro-3-(5-{8-oxa-2-azaspiro[4.5]decan-2-yl}-2H-pyrazolo[3,4-b]pyridin-2-yl)phenyl}azetidine-1-carboxamide]	7.85	6.26	7.68	8.30	–
